These results are taken from patent publication US12139488B2, “Pyrido[3,2-d]pyrimidine compounds uses thereof for treating a proliferative disease” (Universite de Montreal, priority 2021, dated 2024).

The structures appear in SMILES notation.

One assay has as its system pERK in HCT-116 cells (KRAS G13D). Put plainly: Phospho-ERK inhibition (AlphaLISA SureFire Ultra p-ERK 1/2), HCT116. The class given is cell-based, human. To be noted: HCT116 cells, Table 5. How it is done: All cancer cell lines (A375, A101D, A2058, RKO, HT29 SK-MEL 30, IPC298, HepG2, HCT-116, Lovo, SWV620, SW480, NCI-H358, NCI-H2122, Calu-6, NCIH2087, NCIH1755, NCIH1666 and Mewo) were obtained from ATCC and cultured in RPMI-1640 medium (Gibco) supplemented with 5% heat inactivated fetal bovine serum (FBS, Wisent) at 37° C. under 5% CO2. Cells were maintained in T175 flasks (Greiner). They were passaged by removing the culture medium, washing once in 10 mL of room temperature Phosphate Buffered Saline (PBS; Wisent) and incubating at 37° C. with 2 mL of 0.05% Trypsin (Thermo-Fisher). Trypsin was then inactivated by adding complete growth medium and the cells were then replated in a T175 culture dish at the appropriate dilution. All cell lines were routinely tested for mycoplasma contamination. Tissue type and mutational status of each cell line can be found in Table B.
AlphaLISA® SureFire® Ultra™ p-ERK 1/2 (Thr202/Tyr204) analysis was conducted on cells plated in 100 μL of complete RPMI-1640 growth medium in 96-well flat-bottomed transparent dishes (Costar) at a density indicated in Table C. Cells were maintained overnight at 37° C. under 5% CO2 before treatment with compounds' dilution series for one hour. The cell density in cells/cm^2 corresponds to cell number divided by the area of one well of a 96-well plate ([…]).
In a dilution series 100 μL/well of test substance dilution prepared in complete RPMI-1640 growth media was added to the cells. The dilution series is selected so that ten concentrations cover a range from 10 μM to 0.33 nM. If necessary the initial concentration of 10 μM is increased to 100 μM or lowered to 1 μM (as in the case of A375 and H1666 cells, which are generally more sensitive to the compounds) and further dilution is carried out accordingly. The final concentration of DMSO in the assay is set at 0.5%.
After treatment, media was removed and cells were lysed in 50 μL of 1× AlphaScreen Ultra Lysis Buffer (Perkin Elmer). The AlphaLISA® SureFire® Ultra™ p-ERK 1/2 (Thr202/Tyr2O4) (PerkinElmer) reactions were performed with 5 μL of cell lysate according to the manufacturer's specifications in 384-well proxyplates (Perkin Elmer) followed by overnight incubation of the reactions at room temperature in a humidified chamber. After completion of the reactions, the signals were recorded on an EnVision plate reader (Perkin Elmer) using built in AlphaLISA® settings.
The effect of each compound dilution on the pERK signal was expressed in % inhibition and calculated as follows. An internal 100% inhibition control ([…] trametinib, cat #HY-10999; MedChem Express; CAS #871700-17-3) was included in each plate and used as a measure of pERK background. First, the value obtained for trametinib was subtracted from each data point. The average of DMSO (vehicle) controls (set as 0% inhibition) was established and used to calculate % inhibition: % inhibition=100*(1-((pERK signalcompound)/(pERK signalDMSO)))
The ability of each compound to inhibit pERK signal was expressed as an IC50 value obtained by plotting the inhibition values for each data point of a dilution series and fitting the obtained curves using a log(agonist) versus response-variable slope (four parameters) function using GraphPadPrism (V7.0) or Dotmatics Screening Ultra platform.
When present, paradoxical pERK induction is inferred from the negative % inhibition values observed in the pERK IC50 curves of a compound.
Background: Bead proximity is the source of the signal in Alpha formats.
As a reminder, the IC50 is the midpoint of a concentration-inhibition curve. A high value points to weaker potency. `Cc1c(Cl)cccc1S(=O)(=O)Nc1cccc(Nc2ncnc3ccc(-n4nc(C(=O)N5CCOCC5)c5ccccc54)nc23)c1F` [Example 241]: the IC50 was 1 to 10 µM.

Staying with this assay, now noted: HCT116 cells; Ymin in brackets.
As for `O=S(=O)(Nc1ccc(F)c(Nc2ncnc3ccc(-n4cnc5c(CN6CCOCC6)cccc54)nc23)c1F)c1ccccc1Cl` [Ex 220], the “HCT116 pERK Ymin %” value is −1.7%.

Turning to `CCCNc1cccc2c1ncn2-c1ccc2ncnc(Nc3c(F)ccc(NS(=O)(=O)c4cccc(Cl)c4Cl)c3F)c2n1` [Example 242], the “HCT116 pERK Ymin %” value was −7.4%.

Regarding `O=S(=O)(Nc1ccc(F)c(Nc2ncnc3ccc(-n4cc(CO)c5ccccc54)nc23)c1F)c1ccccc1Cl` [Ex 88], the “HCT116 pERK Ymin %” value was −6%.

On to `CCN(C)Cc1cccc2c1ncn2-c1ccc2ncnc(Nc3c(F)ccc(NS(=O)(=O)c4ccccc4Cl)c3F)c2n1` [Ex 221], for which the “HCT116 pERK Ymin %” value is recorded as −5%.

Staying with this assay, now noted: HCT116 cells; class symbol.
`O=S(=O)(Nc1ccc(F)c(Nc2ncnc3ccc(-n4cc(S(=O)(=O)N5CC(O)C5)c5ccccc54)nc23)c1F)c1cccc(Cl)c1Cl` [Ex 455] yielded a half-maximal inhibitory concentration (IC50) of under 0.5 µM.

The compound `O=S(=O)(Nc1ccc(F)c(Nc2ncnc3ccc(-n4cc(S(=O)(=O)N5CCN(C6CCCCC6)CC5)c5ccccc54)nc23)c1F)c1cccc(Cl)c1Cl` [Ex 380] gave an IC50 of 1 to 10 µM.

For the compound `COCCOc1nccc2c1ncn2-c1ccc2ncnc(Nc3c(F)ccc(NS(=O)(=O)c4cccc(Cl)c4Cl)c3F)c2n1` [Example 522], the IC50 lay in the range of 0.5 to 1 µM.

As for `O=S(=O)(Nc1ccc(F)c(Nc2ncnc3ccc(-n4cnc5c4CCCC5)nc23)c1F)c1cccc(Cl)c1Cl` [Ex 463], the IC50 was 0.5 to 1 µM.

With `Cc1c(F)cccc1S(=O)(=O)Nc1ccc(F)c(Nc2ncnc3ccc(-n4cnc5c(CC#N)cccc54)nc23)c1F` [Example 361], the IC50 was under 0.5 µM.

`Cc1c(F)cccc1S(=O)(=O)Nc1ccc(F)c(Nc2ncnc3ccc(-n4cc(S(=O)(=O)N5CCN(CCO)CC5)c5ccccc54)nc23)c1F` [Ex 397] had a 50% inhibitory concentration (IC50) of under 0.5 µM.

For the compound `Cc1cc([N+](=O)[O-])ccc1S(=O)(=O)Nc1ccc(F)c(Nc2ncnc3ccc(-n4cnc5c(N)cccc54)nc23)c1F` [Ex 368], the IC50 lay in the range of 1 to 10 µM.

Compound `Nc1nccc2c1ncn2-c1ccc2ncnc(Nc3c(F)ccc(NS(=O)(=O)c4cccc(Cl)c4Cl)c3F)c2n1` [Example 348] displayed an IC50 of under 0.5 µM.

`O=S(=O)(CC1CCCO1)c1cn(-c2ccc3ncnc(Nc4c(F)ccc(NS(=O)(=O)c5cccc(Cl)c5Cl)c4F)c3n2)c2ccccc12` (stereo not drawn) [Ex 441] registered an IC50 of 0.5 to 1 µM.

In the case of `Cc1c(F)cccc1S(=O)(=O)Nc1ccc(F)c(Nc2ncnc3ccc(-n4cnc(CO)c4)nc23)c1F` [Ex 379], the IC50 fell in the range of 1 to 10 µM.

With `O=S(=O)(Nc1ccc(F)c(Nc2ncnc3ccc(-n4cc(CC5CCN(CC(F)F)CS5(=O)=O)c5ccccc54)nc23)c1F)c1cccc(Cl)c1Cl` (stereo not drawn) [Example 488], the IC50 was under 0.5 µM.

`CN1CCC(S(=O)(=O)c2cn(-c3ccc4ncnc(Nc5c(F)ccc(NS(=O)(=O)c6cccc(Cl)c6Cl)c5F)c4n3)c3ccccc23)CC1` [Example 467] returned an IC50 of under 0.5 µM.

As for `CN(C)C1CCN(S(=O)(=O)c2cn(-c3ccc4ncnc(Nc5c(F)ccc(NS(=O)(=O)c6cccc(Cl)c6Cl)c5F)c4n3)c3ccccc23)CC1` [Ex 387], the IC50 is under 0.5 µM.

In turn, `O=S(=O)(Nc1ccc(F)c(Nc2ncnc3ccc(-n4cnc5c(Cl)cccc54)nc23)c1F)c1cccc(Cl)c1Cl` [Ex 462] came in with an IC50 of under 0.5 µM.

`Cc1c(F)cccc1S(=O)(=O)Nc1ccc(F)c(Nc2ncnc3ccc(-n4ncc5c4CN(CCN)CC5)nc23)c1F` [Example 415] returned an IC50 of 0.5 to 1 µM.

For the compound `CN(CCc1ccccn1)C(=O)c1nn(-c2ccc3ncnc(Nc4c(F)ccc(NS(=O)(=O)c5cccc(Cl)c5Cl)c4F)c3n2)c2ccccc12` [Ex 370], the IC50 was under 0.5 µM.

`CCN1CCN(S(=O)(=O)c2cn(-c3ccc4ncnc(Nc5c(F)ccc(NS(=O)(=O)c6cccc(F)c6C)c5F)c4n3)c3ccccc23)CC1` [Ex 396] showed an IC50 of under 0.5 µM.

For `Cc1c(F)cccc1S(=O)(=O)Nc1ccc(F)c(Nc2ncnc3ccc(-n4cc(S(=O)(=O)N5CCC(N(C)C)CC5)c5ccccc54)nc23)c1F` [Ex 395], the IC50 was under 0.5 µM.

For the compound `CCOc1cccc2c1ncn2-c1ccc2ncnc(Nc3c(F)ccc(NS(=O)(=O)c4cccc(Cl)c4Cl)c3F)c2n1` [Example 525], the IC50 was in the range of 0.5 to 1 µM.

As to `Cc1c(F)cccc1S(=O)(=O)Nc1ccc(F)c(Nc2ncnc3ccc(-n4cnc5c(-c6cnccc6N)cccc54)nc23)c1F` [Example 420], the IC50 lay in the range of 1 to 10 µM.

As to `CCOc1nccc2c1ncn2-c1ccc2ncnc(Nc3c(F)ccc(NS(=O)(=O)c4cccc(Cl)c4Cl)c3F)c2n1` [Example 513], the IC50 lay in the range of 0.5 to 1 µM.

Compound `CS(=O)(=O)c1cccc2c1ncn2-c1ccc2ncnc(Nc3c(F)ccc(NS(=O)(=O)c4cccc(Cl)c4Cl)c3F)c2n1` [Example 521] displayed an IC50 of 1 to 10 µM.

Regarding `Cc1c(F)cccc1S(=O)(=O)Nc1ccc(F)c(Nc2ncnc3ccc(-n4cc5c(n4)CCCN5CCCO)nc23)c1F` [Example 391], the IC50 lay in the range of 1 to 10 µM.

For the compound `O=S(=O)(Nc1ccc(F)c(Nc2ncnc3ccc(-n4cc(-c5ccccc5)nn4)nc23)c1F)c1cccc(Cl)c1Cl` [Example 534], the IC50 was under 0.5 µM.

The compound `CNCC(C)(C)S(=O)(=O)c1cn(-c2ccc3ncnc(Nc4c(F)ccc(NS(=O)(=O)c5cccc(Cl)c5Cl)c4F)c3n2)c2ccccc12` [Example 461] yielded an IC50 of under 0.5 µM.

With `Cc1c(F)cccc1S(=O)(=O)Nc1ccc(F)c(Nc2ncnc3ccc(-n4cc5c(n4)CCCN5C)nc23)c1F` [Example 356], the IC50 is under 0.5 µM.

With `Cc1c(F)cccc1S(=O)(=O)Nc1ccc(F)c(Nc2ncnc3ccc(-n4cnc5c(-c6cccnc6N)cccc54)nc23)c1F` [Example 424], the IC50 is under 0.5 µM.

`O=C(c1cn(-c2ccc3ncnc(Nc4c(F)ccc(NS(=O)(=O)c5cccc(Cl)c5Cl)c4F)c3n2)c2ccccc12)C1CCOC1` (stereo not drawn) [Example 500] had an IC50 of 1 to 10 µM.

The compound `N#CC1(c2cccc3c2ncn3-c2ccc3ncnc(Nc4c(F)ccc(NS(=O)(=O)c5cccc(Cl)c5Cl)c4F)c3n2)CC1` [Example 552] displayed an IC50 of under 0.5 µM.

As for `Cc1c(F)cccc1S(=O)(=O)Nc1ccc(F)c(Nc2ncnc3ccc(-n4ccc(C(=O)N(C)Cc5ccncc5)n4)nc23)c1F` [Example 334], the half-maximal inhibitory concentration (IC50) was under 0.5 µM.

In turn, `CC(C)(CC(F)F)S(=O)(=O)c1cn(-c2ccc3ncnc(Nc4c(F)ccc(NS(=O)(=O)c5cccc(Cl)c5Cl)c4F)c3n2)c2ccccc12` [Example 499] came in with an IC50 of under 0.5 µM.

The compound `Cc1c(F)cccc1S(=O)(=O)Nc1ccc(F)c(Nc2ncnc3ccc(-n4cc5c(n4)CCCN5CCN)nc23)c1F` [Example 362] yielded an IC50 of 1 to 10 µM.

`CCC(=O)c1cn(-c2ccc3ncnc(Nc4c(F)ccc(NS(=O)(=O)c5cccc(Cl)c5Cl)c4F)c3n2)c2ccccc12` [Ex 471] gave an IC50 of 1 to 10 µM.

In turn, `Cc1c(F)cccc1S(=O)(=O)Nc1ccc(F)c(Nc2ncnc3ccc(-n4cnc5c(NCCO)cccc54)nc23)c1F` [Example 350] registered an IC50 of under 0.5 µM.

Compound `O=S(=O)(CC1CCOCC1)c1cn(-c2ccc3ncnc(Nc4c(F)ccc(NS(=O)(=O)c5cccc(Cl)c5Cl)c4F)c3n2)c2ccccc12` [Ex 442] displayed a half-maximal inhibitory concentration (IC50) of under 0.5 µM.

The same assay, now with this note: HCT116 cells; class symbol before the bracket.
Compound `O=S(=O)(Nc1ccc(F)c(Nc2ncnc3ccc(-n4cnc5c(CN6CCOCC6)cccc54)nc23)c1F)c1ccccc1Cl` [Ex 220] came in with an IC50 of 0.5 to 1 µM.

`CCCNc1cccc2c1ncn2-c1ccc2ncnc(Nc3c(F)ccc(NS(=O)(=O)c4cccc(Cl)c4Cl)c3F)c2n1` [Example 242] yielded an IC50 of 1 to 10 µM.

In the case of `O=S(=O)(Nc1ccc(F)c(Nc2ncnc3ccc(-n4cc(CO)c5ccccc54)nc23)c1F)c1ccccc1Cl` [Ex 88], the IC50 lay in the range of 1 to 10 µM.

With `CCN(C)Cc1cccc2c1ncn2-c1ccc2ncnc(Nc3c(F)ccc(NS(=O)(=O)c4ccccc4Cl)c3F)c2n1` [Ex 221], the IC50 lay in the range of 0.5 to 1 µM.

The assay is the same for the next values; noted with them: lowest value of the curve, HCT116, Table 5.
With `Cc1c(Cl)cccc1S(=O)(=O)Nc1cccc(Nc2ncnc3ccc(-n4nc(C(=O)N5CCOCC5)c5ccccc54)nc23)c1F` [Example 241], the “HCT116 pERK Ymin %” value is listed as −0.9%.
